Measured values taken from patent US5171882A, “Leukotriene antagonists” (Eli Lilly and Company, priority 1990, dated 1992).
Like-named read-outs stand apart in the source and are kept apart here.

Key:
[1] = target: T1, LTD4 receptors (Cavia porcellus, UniProt Q2NNR5); assay: Antagonism of LTD4 (guinea pig ileum and trachea, pA2); settings: *Estimated; negative log of KB; antagonist 30 minute incubation
T1 construct: A section of terminal ileum was removed, the lumen cleaned, and the tissue divided into 2.5 cm segments; from tissue; host or cells: ileum and trachea of guinea pig (ileum: male Hartley)
T1 sequence (Q2NNR5 1-340): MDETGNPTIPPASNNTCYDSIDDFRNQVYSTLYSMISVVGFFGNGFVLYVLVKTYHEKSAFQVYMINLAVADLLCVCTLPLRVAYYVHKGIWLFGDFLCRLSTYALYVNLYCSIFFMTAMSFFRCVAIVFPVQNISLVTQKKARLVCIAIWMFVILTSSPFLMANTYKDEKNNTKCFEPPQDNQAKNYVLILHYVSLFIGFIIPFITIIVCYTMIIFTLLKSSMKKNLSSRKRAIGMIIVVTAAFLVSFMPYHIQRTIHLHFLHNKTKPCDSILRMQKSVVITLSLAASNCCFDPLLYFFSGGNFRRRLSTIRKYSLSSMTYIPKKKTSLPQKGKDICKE
Procedure: Male, Hartley guinea pigs weighing 200-450 grams were killed by decapitation. A section of terminal ileum was removed, the lumen cleaned, and the tissue divided into 2.5 cm segments. The ilea were mounted in 10 ml tissue baths containing Krebs-bicarbonate solution of the following composition in mmoles/liter: KCl, 4.6; CaCl2 ·2H2 O, 1.2; KH2 PO4, 1.2; MgSO4 ·7H2O, 1.2; NaCl, 118.2; NaHCO3, 24.8; and dextrose, 10.0. The bath fluid was maintained at 37° C. and aerated with 95 percent oxygen and 5 percent CO2 In addition, the buffer contained 1×10^-6 M atropine to reduce ileal spontaneous activity. Isometric measurements were made with a Grass FT03C. force-displacement transducer and recorded on a Grass polygraph as change in grams of force. A passive force of 0.5 g was applied to the tissues. After an appropriate equilibration period, single submaximal control responses to pure LTD4 were obtained. Following a five minute exposure of the ileum to an experimental drug, the control concentration of LTD4 was added to the tissue bath. The response of the ileum to LTD4 in the presence of the drug was compared to the response in the absence of the drug.
A more detailed analysis of LTD4 antagonism was then made. In these experiments, cumulative concentration-response curves were obtained to LTD4 in guinea pig ileum and trachea. This was followed by a 30 minute incubation with various concentrations of the experimental drug. The concentration response curve to LTD4 was then repeated in the presence of the antagonist. Only one concentration of antagonist was used on a single tissue. KB values were calculated by the method of Furchgott [Ann. N.Y. Acad. Sci., 139, 553 (1967)] using the following equation. [formula]
Dose ratio refers to the concentration of agonist required to elicit 50 percent of the maximal response ED50) in the presence of the antagonist divided by the ED50 in the absence of the antagonist.

[2] = target: T2, specific receptor on the membrane of human neutrophils (leukotriene B4) (Homo sapiens, UniProt Q15722); assay: Inhibition of Binding of ^3 H-LTB4 to Peripheral Human Neutrophils; settings: read-out: LTB4 Binding Inhibition
T2 construct: Freshly-prepared buffy coat layers from two individuals were obtained from a local blood donor center; endogenous in cells; host or cells: intact human peripheral blood neutrophils from buffy coats of two donors
T2 sequence (Q15722 whole entry): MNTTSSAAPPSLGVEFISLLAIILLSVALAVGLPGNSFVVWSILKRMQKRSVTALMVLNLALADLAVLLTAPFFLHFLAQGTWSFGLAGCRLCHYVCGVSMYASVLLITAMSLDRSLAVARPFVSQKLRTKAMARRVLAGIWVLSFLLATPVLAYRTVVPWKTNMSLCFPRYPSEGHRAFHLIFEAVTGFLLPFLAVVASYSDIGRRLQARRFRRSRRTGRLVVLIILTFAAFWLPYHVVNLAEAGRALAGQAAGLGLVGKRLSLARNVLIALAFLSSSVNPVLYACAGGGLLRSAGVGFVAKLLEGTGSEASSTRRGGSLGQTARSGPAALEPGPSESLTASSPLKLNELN
Procedure: Cells used in the assay were isolated by standard techniques of centrifugation on Ficoll-Hypaque, dextran 70 sedimentation and hypotonic lysis. The following procedure was used. Freshly-prepared buffy coat layers from two individuals were obtained from a local blood donor center. The cells were mixed and diluted to 484 ml with phosphate buffered saline containing heparin (10 units/ml) and heat-inactivated calf serum (5%). This was divided into 20 ml aliquots and the aliquots layered on top of Ficoll-Paque (12 ml). The material was then centrifuged at 500 g for 40 minutes at room temperature. The resulting upper layer of platelets and mononuclear cells was discarded. The lower layer containing erythrocytes and neutrophils was retained. Buffer was added (1 ml per 4 ml of lower layer) and the suspension mixed. For each milliliter of this mixture, 0.33 ml of 6% Macrodex was added. After stirring, the cells were allowed to sediment for 1 hour at 37° C. The resulting erythrocyte pellet was discarded and the neutrophil enriched supernatant fluid centrifuged at 500 g for 10 minutes at 4° C. Erythrocytes still present in this cell pellet were lysed by incubating the cells with 5-8 ml ice-cold distilled water for 30-45 seconds. Subsequently, the volume was made up to 50 ml by addition of ice-cold buffer and the cells resuspended. The suspension was then centrifuged at 300 g for 10 minutes at 4° C. The cells were finally resuspended at a cell density of 2×10^7 cells/ml in the assay buffer This buffer consisted of Hanks' balanced salt solution and 0.1% ovalbumin (pH 7.3).
The amount of bound ^3 H-LTB4 was then measured and compared with the amount bound in the absence of test compound. The assay was carried out in microcentrifuge tubes by adding first 10 μl test compound dissolved in DMSO, followed by adding 20 μl ^3 H-LTB4 diluted in assay buffer, and finally adding 500 μl of the cell suspension. At the end of the 10 minutes incubation, 300 μl of a mixture of dibutyl and dinonyl phthalate (7:2) were added and the tubes centrifuged for 2 minutes in a microcentrifuge. The radioactivity bound to the cell pellet was measured by scintillation spectroscopy. Appropriate corrections for nonspecific bonding of ^3 H-LTB4 were made.

[3] = tested on: LTB4 induced cell aggregation (neutrophils); assay: LTB4 Induced Aggregation Assay (neutrophils); format: cell-based, guinea pig; settings: Cavia porcellus, Neutrophil; for inhibition at 10 µM: drug concentration 10^-5 M; for inhibition at 1 µM: drug concentration 10^-6 M; for inhibition at 0.1 µM: drug concentration 10^-7 M
Procedure: Neutrophils were elicited by intraperitoneally injecting 20 ml of Dulbecco's calcium and magnesium deficient phosphate buffered saline (PBS) containing 2% oyster glycogen into each of two male Hartley guinea pigs. Eighteen hours later, cells accumulating in the peritoneal cavity were harvested by washing the peritoneum with approximately 100 ml of PBS containing 10 units/ml of heparin. The cells were centrifuged at 200 g for 8 min. and the supernatant fluid discarded. Erythrocytes present in the pellet were lyzed by vigorous agitation of the cells in 9 ml of ice-cold distilled water for approximately 30 seconds. Physiological osmolarity was restored by adding 1.5 ml of 0.6 M KCl. Twelve milliliters of PBS were added and the resuspended cells centrifuged at 200 g for 8 min. at 4°. The pellet was resuspended in 5 ml PBS. The cell concentration was determined and additional buffer added to make the concentration […]; cells per ml.
The aggregation assay was carried out by measuring the amount of LTB4 induced cell aggregation with a Payton single channel aggregometer, model 300B. The apparatus was calibrated by placing a cuvette containing the cell suspension in it and adjusting the zero knob so that the recorder pen rested at 1 mV. A cuvette containing 20% less cells was then inserted into the aggregometer and the output knob adjusted so that the recorder pen rested at 9 mV. With these settings an 8 mV change causes the recorder pen to move 200 mm. When conducting an assay, 0.5 ml of cell suspension (5×10^6 cells) was added to each cuvette. Five microliters of a solution of test compound were then added. Most compounds were initially dissolved in DMSO at 1×10^-2 M and then diluted appropriately with PBS so that the test compound concentration was 1×10^-5 to 1×10^-7 M and the test DMSO concentration was 0.1% or less. A few of the more water insoluble compounds were first dissolved in DMSO at 1 to 6×10^-3 M and then diluted appropriately with PBS. The test concentration of DMSO was never higher than 1%. After a 2 minute equilibration period of cells and test compound, 5 μl of a solution containing CaCl2 (100 mM) and MgCl2 (50 mM) were added. One minute later, 5 μ l of PBS containing LTB4 (3×10^-7 M) were added. The change occurring in the amount of light transmitted during the subsequent minute was measured. […] During a typical experiment, several measurements of the amount of aggregation induced by LTB4 were made and an average value determined. The effect of a test compound on this aggregation was determined by the following formula: [formula]

[4] = drug concentration 10^-5 M, 0.1-0.2 nM ^3 H-LTB4, 10 minutes at 4° C
[5] = drug concentration 10^-6 M, 0.1-0.2 nM ^3 H-LTB4, 10 minutes at 4° C
[6] = drug concentration 10^-7 M, 0.1-0.2 nM ^3 H-LTB4, 10 minutes at 4° C

| SMILES | Kb [1] [µM] | inhibition at 10 µM [2, 4] [%] | inhibition at 1 µM [2, 5] [%] | inhibition at 10 µM [3] [%] | inhibition at 1 µM [3] [%] | inhibition at 0.1 µM [2, 6] [%] | inhibition at 0.1 µM [3] [%] | inhibition at 10 µM [2] [%] | inhibition at 0.1 µM [2] [%] | inhibition at 1 µM [2] [%] |
| --- | --- | --- | --- | --- | --- | --- | --- | --- | --- | --- |
| CCCCCCCCCCOc1ccc(C(=O)c2cccc(C(=O)OCC)c2)cc1CCCC(=O)OCC [Example 7, 2-(Decyloxy)-5-[3-(ethoxycarbonyl)benzoyl]benzenebutanoic acid, ethyl ester] | 0.158 |  |  |  |  |  |  |  |  |  |
| CCCCCCCCCCOc1ccc(C(=O)c2cccc(C(=O)O)c2)c(CC(=O)O)c1 [Example 21, 2-(3-Carboxybenzoyl)-5-(decyloxy)benzeneacetic acid] | 1.41 | 74 | 23 |  |  |  |  |  |  |  |
| CCCCCCCCCCOc1ccc(C(=O)c2cccc(C(=O)O)c2)cc1CCCC(=O)O [Example 23, 5-(3-Carboxybenzoyl)-2-(decyloxy)benzenebutanoic acid] |  | 87 | 52 | 92 | 46 | 4 |  |  |  |  |
| CCCCCCCCCCOc1ccc(C(=O)c2cccc(-c3nnn[nH]3)c2)cc1CC(=O)O [Example 24, 2-(Decyloxy)-5-[3-(1H-tetrazol-5-yl)benzoyl]benzeneacetic acid] | 0.398 | 93 | 28 |  |  |  |  |  |  |  |
| CCCCCCCCCCOc1ccc(C(=O)c2cccc(Cc3nnn[nH]3)c2)cc1CCC(=O)O [Example 25, 2-(Decyloxy)-5-[3-(1H-tetrazol-5-ylmethyl)benzoyl]benzenepropanoic acid] | 0.631 |  |  |  |  |  |  |  |  |  |
| CCCCCCCCCCOc1ccc(C(=O)Cc2ccccc2C(=O)O)cc1CCC(=O)O [Example 34, 5-[(2-Carboxyphenyl)acetyl]-2-(decyloxy)benzenepropanoic acid] | 1.91 |  |  |  |  |  |  |  |  |  |
| CCCCCCCCCCOc1ccc(C(O)c2cccc(C(=O)O)c2)cc1CCC(=O)O (stereo not drawn) [Example 46, 5-[(3--Carboxyphenyl)hydroxymethyl]-2-(decyloxy)benzenepropanoic acid] |  | 91 | 55 |  | 73 | 13 | 7 |  |  |  |
| CCCCCCCCCCOc1ccc(C(O)c2ccc(C(=O)O)cc2)cc1CC(=O)O (stereo not drawn) [Example 47, 5-[(4-Carboxyphenyl)hydroxymethyl]-2-(decyloxy)benzeneacetic acid] |  | 59 | 2 | 80 | 50 |  | 2 |  |  |  |
| C=C(c1cccc(C(=O)O)c1)c1ccc(OCCCCCCCCCC)c(CCC(=O)O)c1 [Example 54, 5-[1-(3-Carboxyphenyl)ethenyl]-2-(decyloxy)benzenepropanoic acid] |  | 71 | 37 |  | 88 | -3 | 12 |  |  |  |
| CCOC(=O)CCc1cc(C(=O)c2cccc(C(=O)OCC)c2)ccc1OCCCCCCc1ccc(Cl)cc1 [Example 66, 2-{[6-(4-Chlorophenyl)hexyl]oxy}-5-[3-(ethoxycarbonyl)benzoyl]benzenepropanoic acid, ethyl ester] | 0.575 |  |  |  |  |  |  |  |  |  |
| O=C(O)CCc1cc(C(=O)c2cccc(C(=O)O)c2)ccc1OCCCCCCc1ccccc1 [Example 75, 5-(3-Carboxybenzoyl)-2-[6-(phenylhexyl)-oxy]benzenepropanoic acid] |  |  | 82 | 93 | 69 | 36 | 15 | 97 |  |  |
| COc1ccc(C=CCCCCOc2ccc(C(=O)c3cccc(C(=O)O)c3)cc2CCC(=O)O)cc1 [Example 79, 5-(3-Carboxybenzoyl)-2-{[6-(4-methoxyphenyl)-5-hexenyl]oxy}benzenepropanoic acid] |  |  |  | 92 | 87 |  | 46 | 100 | 92 | 97 |
| O=C(O)CCc1cc(C(=O)c2cccc(C(=O)O)c2)ccc1OCCCCCCc1ccc(Cl)cc1 [Example 81, 2-{[6-(4-Chlorophenyl)hexyl]oxy}-5-(3-carboxybenzoyl)benzenepropanoic acid] |  | 106 | 91 | 76 | 63 | 42 | 8 |  |  |  |
| C[S+]([O-])c1ccc(C=CCCCCOc2ccc(C(=O)c3cccc(C(=O)O)c3)cc2CCC(=O)O)cc1 (stereo not drawn) [Example 90, 5-(3-Carboxybenzoyl)-2-{[6-(4-methylsulfinylphenyl)-5-hexenyl]oxy}benzenepropanoic acid] |  | 98 | 96 | 85 | 79 | 90 | 9 |  |  |  |
